Our source for the IC50 and melting point values is patent publication US7034047B2, “Triazole derivative” (Astellas Pharma, Inc., priority 2000, dated 2006).

For the first series, the target named is T1, GLYT1 subtype of the glycine transporter (Rattus norvegicus, UniProt P28572).
T1 construct: C6 glioma cell expressing GLYT1 subtype of the glycine transporter; host or cells: C6 glioma cells
T1 sequence (P28572 1-638): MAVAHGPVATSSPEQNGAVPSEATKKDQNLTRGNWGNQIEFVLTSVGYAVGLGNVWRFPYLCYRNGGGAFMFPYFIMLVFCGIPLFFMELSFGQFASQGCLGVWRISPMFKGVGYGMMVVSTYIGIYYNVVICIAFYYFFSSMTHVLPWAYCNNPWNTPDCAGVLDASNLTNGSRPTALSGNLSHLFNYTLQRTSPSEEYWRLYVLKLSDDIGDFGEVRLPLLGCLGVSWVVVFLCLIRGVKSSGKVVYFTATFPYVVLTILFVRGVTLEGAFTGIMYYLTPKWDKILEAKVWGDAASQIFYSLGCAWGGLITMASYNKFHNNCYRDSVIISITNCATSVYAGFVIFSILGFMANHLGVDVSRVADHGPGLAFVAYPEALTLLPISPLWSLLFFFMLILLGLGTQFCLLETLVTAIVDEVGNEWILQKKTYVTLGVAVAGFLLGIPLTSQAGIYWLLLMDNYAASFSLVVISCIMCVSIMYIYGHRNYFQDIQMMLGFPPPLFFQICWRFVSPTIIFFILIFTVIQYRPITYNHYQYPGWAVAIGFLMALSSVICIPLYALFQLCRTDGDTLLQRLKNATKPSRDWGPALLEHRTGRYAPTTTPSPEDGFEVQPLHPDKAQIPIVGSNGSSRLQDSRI
Nature of the series: [3H]-glycine uptake assay in C6 glioma cells (action of inhibiting glycine transporter). It counts as cell-based. Particulars: 20 min at 37° C., read-out: GLYT-inhibiting activity IC50. The procedure:
1. Action of Inhibiting Glycine Transporter
C6 glioma cell (American Type Culture Collection) was cultured in DMEM containing 10% fetal bovine serum, 100 units/ml penicillin G and 0.1 mg/ml streptomycin sulfate in a CO2 incubator under conditions of 5% CO2 and 37° C.
[^3H]-glycine uptake was performed by the method of Gomeza, et al.
C6 glioma cells were plated out at a concentration of 2×10^4 cells/well in a 96-well plate (Culturplate, Packard Co.), for culturing for 2 days. Subsequently, [^3H]-glycine uptake was tested. The cell was rinsed once in a buffer (150 mM NaCl, 5 mM KCl, 1 mM CaCl2, 1 mM MgCl2, 10 mM glucose, 5 mM L-alanine, 10 mM Hepes-Na, pH 7.4), followed by subsequent addition of the buffer, for incubation at 37° C. for 10 minutes.
After incubation, the buffer was exchanged to a reaction buffer including [^3H]-glycine (about 0.2 μM, 41 Ci/mmol, New England Nuclear)and a compound to be assessed, for incubation at 37° C. for another 20 minutes. After 20-min reaction, the reaction mixture was rinsed in ice-cold PBS (phosphate buffered saline). The cell was dissolved in 0.1N NaOH solution, to assay the radioactivity incorporated with a liquid scintillation counter. The specific incorporation was defined as a portion substituted with 3 mM sarcosine in the total incorporation. The test compound was assessed by determining the incorporation-inhibiting ratio of the specific incorporation.
`Fc1ccccc1-n1c(CN2CCc3sccc3C2)nnc1-c1ccc(-c2ccccc2)cc1` [Example 202]: the IC50 (as a rule, the midpoint of a concentration-inhibition curve) turned out to be 1600 nM.
With `COc1ccccc1-n1c(C)nnc1-c1ccc(-c2ccccc2)cc1` [Compound 1, 3-(biphenyl-4-yl)-4-(2-methoxyphenyl)-5-methyl-4H-1,2,4-triazole, reference compound], the IC50 came out at 1000 nM.
Take `CN(CC1CCCO1)c1nnc(-c2ccc(-c3ccccc3)cc2)n1-c1ccccc1F` (stereo not shown) [Example 236]: the IC50 was found to be 940 nM.
Take `Cc1nnc(-c2ccc(-c3ccccc3)cc2)n1-c1ccccc1[N+](=O)[O-]` [Example 256]: the IC50 was determined as 86 nM.
For the compound `CCc1nnc(-c2ccc(-c3ccccc3)cc2)n1-c1ccccc1OC` [Compound 3, 3-(biphenyl-4-yl)-5-ethyl-4-(2-methoxyphenyl)-4H-1,2,4-triazole, reference compound], the half-inhibitory concentration (IC50) turned out to be 350 nM.
As to `COCCN(C)c1nnc(-c2ccc(-c3ccccc3)nc2)n1-c1cccc2nonc12` [Example 9, 4-(2,1,3-Benzooxadiazol-4-yl)-N-(2-methoxyethyl)-N-methyl-5-(6-phenylpyridin-3-yl)-4H-1,2,4-triazol-3-ylamine], the IC50 came to 330 nM.
Take `c1ccc(-c2ccc(-c3nnc(-c4ccco4)n3-c3ccccc3)cc2)cc1` [Compound 2, 3-(biphenyl-4-yl)-5-(furan-2-yl)-4-phenyl-4H-1,2,4-triazole, reference compound]: the IC50 came to 4600 nM.
Same read-out and setting: the same measure for `COCCCc1nnc(-c2ccc(-c3ccccc3)nc2)n1-c1cccc(C#N)c1C` [Example 5, 3-[3-(3-Methoxypropyl)-5-(6-phenylpyridin-3-yl)-4H-1,2,4-triazol-4-yl]-2-methylbenzonitrile]: 410 nM; for `CN(CCCSc1nnc(-c2ccc(-c3ccccc3)cc2)n1-c1ccccc1F)CC(=O)O` [Example 157]: 1500 nM; for `CCc1nnc(-c2ccc(-c3ccccc3)cc2)n1-c1ccccc1Oc1cccnc1` [Example 279]: 4600 nM.
In the case of `CC(C)c1nnc(-c2ccc(-c3ccccc3)nc2)n1-c1c(F)cccc1F` [Example 1, 5-[4-(2,6-Difluorophenyl)-5-isopropyl-4H-triazol-3-yl]-2-phenylpyridine], the half-maximal inhibitory concentration (IC50) amounted to 140 nM.
Consider `CC(C)c1nnc(-c2ccc(-c3ccccc3)nc2)n1-c1cccc2nonc12` [Example 2, 4-[3-Isopropyl 5-(6-phenylpyridin-3-yl)-4H-1,2,4-triazol-4-yl]-2,1,3-benzooxadiazole], for which the IC50 was found to be 100 nM.
Regarding `COCCN(C)c1nnc(-c2ccc(-c3ccccc3)nc2)n1-c1ccccc1C#N` [Example 8, 2-{3-[N-(2-Methoxyethyl)-N-methylamino]-5-(6-phenylpyridin-3-yl)-4H-1,2,4-triazol-4-yl}benzonitrile], the IC50 worked out at 250 nM.
Same read-out and setting: the figure for `Cc1nnc(-c2ccc(-c3cccs3)cc2)n1-c1ccccc1F` [Example 10, 4-(2-Fluorophenyl)-3-methyl-5-(4-thiophen-2-ylphenyl)-4H-1,2,4-triazole] is 200 nM.
On to `CC(C)c1nnc(-c2cnc(-c3ccccc3)c(Cl)c2)n1-c1c(F)cccc1F` [Example 112], for which the IC50 was found to be 1000 nM.

System in the next series: not given
Assay: not given
Settings: not given
On to `CSc1nnc(-c2ccc(-c3ccccc3)cc2)n1-c1ccccc1F` [Example 12, 3-Biphenyl-4-yl-4-(2-fluorophenyl)-5-methylsulfanyl-4H-1,2,4-triazole], for which the melting point (as a rule, the temperature of the solid-liquid transition) was 199 to 200 °C.
